In publication PMC10539501 (Nature Communications, 2023):
Starred links: 1 amine or outer side, 2 acyl side, 3 side chain; linkers in the order of their positions; H or OH if unused. Non-standard residues stand in square brackets, D forms with d. Residues, ends and D or L forms follow the SMILES beside them. X3 = CC(C)C[C@H](N[*:1])C(=S)N[C@H](CC(C)C)C(=O)[*:2]; NMeL = CN[C@@H](CC(C)C)C(=O)O

Assays:
[1] = PAMPA passive permeability; format: in vitro ADME; conditions: for Papp: Pe Avg;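 for all read-outs here: passive permeability across an artificial membrane in 96-well pre-coated PAMPA plates, which lack transporters and efflux systems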
Description: Encouraged by this, the passive permeability of the analogs was evaluated using an artificial membrane (PAMPA), which measures permeability of compounds in the absence of transporters and efflux systems[32].
96-well BD Corning® pre-coated PAMPA plates were used following the supplier’s protocol, details in Supplementary Information.

[2] = target: T1, pepsin (Sus scrofa, UniProt P00791); conditions: pH 1.2
Description: (§1) A stability assessment of the peptides was done in simulated gastric (SGF) and intestinal (SIF) fluids and human liver microsomes. The degradation kinetics of the aliquoted samples at desired time points were analyzed through RP-HPLC.

[3] = test system: human liver microsomes
Description: as §1

[4] = rat, in vivo, po, 10 mg/kg
Description: (§2) All animals were housed individually in the animal facility at Anthem Biosciences Pvt. Ltd and were acclimatized for 3 days. All animals were fasted overnight before dosing, whereas access to water was provided ad libitum. Peptides were administered orally and via s.c. route and blood samples were collected at different time points through a jugular vein catheter.

[5] = in vivo; conditions: male, Wistar, rat
Description: as §2

[6] = physchem; conditions: pH 7.4
[7] = in vitro; conditions: both, human, plasma
[8] = target: T1, pepsin; assay: in vitro; conditions: simulated gastric fluid, pH 1.2
Description: as §1

[9] = in vitro; conditions: pig, simulated intestinal fluid
Description: (§3) We next assessed the stability of the macrocyclic peptides in Simulated Intestinal Fluid (SIF)[42], comprising of pancreatin, which is a mixture of several proteases produced by the exocrine cells of the porcine pancreas.
as §1

[10] = in vitro; conditions: human, microsomes
Description: as §1

[11] = in vitro; conditions: both, human, plasma; remark: listed apart in the source
Description: Blood was freshly drawn from three healthy adults, two male and one person of 26–28 year old. […] The plasma was separated by centrifugation. […] For checking metabolic stability, the required volume of plasma was pre-incubated at 37 °C prior to the experiment for 2 min, followed by spiking with the peptides. At different time points, plasma was aliquoted. The supernatant was separated and used for RP-HPLC quantification. Rapid Equilibrium Dialysis (RED) assay was performed to assess the plasma protein binding of the peptides following the supplier’s protocol.

[12] = format: physicochemical
[13] = format: physicochemical; remark: listed apart in the source
[14] = in vitro; format: in vitro ADME, human
Description: (§4) The Caco-2 cell (HTB-37^TM from ATCC, procured from NCCS, Pune) monolayer was washed and pre-incubated at 37 °C and 5% CO2 for 30 min with HBSS-HEPES buffer containing 1% DMSO prior to experimentation. The assay was performed 21 days post-seeding of cells. TEER values were measured before starting and after the completion of the assay. Acceptor and donor well concentrations of the peptides and controls were assessed through LC-MS/MS.

[15] = test system: Caco-2 cells; assay: in vitro; format: in vitro ADME, human; conditions: Caco-2
Description: as §4

[16] = test system: plasma proteins
[17] = test system: pancreatin
Description: as §3, §1

[18] = Retention in hydrophobic C18 column by HPLC; conditions: Supplementary Fig 3d, logD7.4 vs tR
[19] = HDX of amide protons by NMR in DMSO-d6:D2O (8:2); conditions: HDX by NMR, 20% D2O in DMSO-d6
Description: (§5) As hydrogen bonding and solvation of NH groups play an important role in the permeability of macrocycles, we determined the solvent accessibility of individual amide protons in 10 and 10a–10f by hydrogen-deuterium exchange (HDX) through NMR spectroscopy (Figs. 2a–c).
(§6) Spectra were recorded on a Bruker AV 500 MHz spectrometer at 25 °C.

[20] = HDX of amide protons by NMR in CDCl3:CD3OD (8:2)
Description: as §5, §6

[21] = 20% CD3OD in CDCl3, % remaining after 24 hours
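Throughout, for Papp A-B avg (second block): Caco-2 monolayers used 21 days after seeding in HBSS-HEPES buffer with 1% DMSO, donor and acceptor levels quantified by LC-MS/MS, TEER checked before and after.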
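Throughout, for Papp A-B set 1 (second block): Caco-2 monolayers used 21 days after seeding in HBSS-HEPES buffer with 1% DMSO, donor and acceptor levels quantified by LC-MS/MS, TEER checked before and after.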
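Throughout, for Papp A-B set 2 (second block): Caco-2 monolayers used 21 days after seeding in HBSS-HEPES buffer with 1% DMSO, donor and acceptor levels quantified by LC-MS/MS, TEER checked before and after.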
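Throughout, for Papp B-A avg (second block): Caco-2 monolayers used 21 days after seeding in HBSS-HEPES buffer with 1% DMSO, donor and acceptor levels quantified by LC-MS/MS, TEER checked before and after.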

T1 sequence (P00791 60-385): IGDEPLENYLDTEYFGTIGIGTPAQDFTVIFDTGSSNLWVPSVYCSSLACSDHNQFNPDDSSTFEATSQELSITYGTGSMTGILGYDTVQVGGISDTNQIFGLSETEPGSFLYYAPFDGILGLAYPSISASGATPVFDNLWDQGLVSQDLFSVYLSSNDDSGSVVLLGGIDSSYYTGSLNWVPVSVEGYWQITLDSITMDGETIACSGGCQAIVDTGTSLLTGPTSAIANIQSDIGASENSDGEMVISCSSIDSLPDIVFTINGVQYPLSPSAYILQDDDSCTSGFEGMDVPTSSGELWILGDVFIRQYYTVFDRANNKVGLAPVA

**Q.** For `CC(C)C[C@@H]1NC(=O)[C@H](Cc2ccc(O)cc2)NC(=O)[C@H]2CCCN2C(=O)[C@H](CC(C)C)NC(=O)[C@H](CC(C)C)N(C)C(=O)[C@@H](CC(C)C)NC1=O` [10h] (cyclo(L[dL][NMeL]L[dP]Y)), which Papp [1] is on record?
**A.** 9.07 ×10⁻⁶ cm/s

**Q.** And the “Half lives (SGF) Avg” value [2]?
**A.** 65.5 min

**Q.** What about the “Half lives (SGF) set1” value [2] of the same compound?
**A.** 52 min

**Q.** What about the Half lives [3] of the same compound?
**A.** 28.7

**Q.** And the “Fold Change of AUClast p.o” value [4]?
**A.** 29

**Q.** What about the AUC(0-t) ([5]; iv) of the same compound?
**A.** 212 ng·h/mL

**Q.** And the Cmax ([5]; iv)?
**A.** 435 ng/mL

**Q.** And the MRT ([5]; iv)?
**A.** 0.4 h

**Q.** What about the Vd ([5]; iv) of the same compound?
**A.** 2.3 L/kg

**Q.** And the clearance ([5]; iv)?
**A.** 79.5 mL/min/kg

**Q.** And the bioavailability ([5]; po)?
**A.** 1.2%

**Q.** What about the AUC(0-t) ([5]; po, 10 mg/kg) of the same compound?
**A.** 25.9 ng·h/mL

**Q.** And the Cmax ([5]; po, 10 mg/kg)?
**A.** 13.1 ng/mL

**Q.** What about the MRT ([5]; po, 10 mg/kg) of the same compound?
**A.** 1.3 h

**Q.** What about the level at 3 h ([5]; po, 10 mg/kg) of the same compound?
**A.** 3.2 ng/mL

**Q.** What about the logD [6] of the same compound?
**A.** 1.46

**Q.** And the fraction unbound [7]?
**A.** 0.3

**Q.** What about the remaining at 2 min [8] of the same compound?
**A.** 97%

**Q.** What about the remaining at 10 min [8] of the same compound?
**A.** 89%

**Q.** And the remaining at 20 min [8]?
**A.** 79%

**Q.** What about the remaining at 0.5 h [8] of the same compound?
**A.** 67%

**Q.** And the remaining at 1 h [8]?
**A.** 57%

**Q.** What about the remaining at 2 h [8] of the same compound?
**A.** 26%

**Q.** And the remaining at 4 h [8]?
**A.** 16%

**Q.** What about the remaining at 8 h [8] of the same compound?
**A.** 8%

**Q.** What about the remaining at 12 h [8] of the same compound?
**A.** 3%

**Q.** And the half-life [9]?
**A.** 56 min

**Q.** What about the remaining at 10 min [9] of the same compound?
**A.** 71%

**Q.** What about the remaining at 0.5 h [9] of the same compound?
**A.** 63%

**Q.** And the remaining at 1 h [9]?
**A.** 47%

**Q.** And the remaining at 2 h [9]?
**A.** 27%

**Q.** And the remaining at 4 h [9]?
**A.** 16%

**Q.** What about the remaining at 8 h [9] of the same compound?
**A.** 2.66%

**Q.** What about the remaining at 12 h [9] of the same compound?
**A.** 1%

**Q.** And the microsomal CLint [10]?
**A.** 49 µL/min/mg

**Q.** And the remaining at 2 min [10]?
**A.** 99%

**Q.** And the remaining at 10 min [10]?
**A.** 94%

**Q.** What about the remaining at 20 min [10] of the same compound?
**A.** 65%

**Q.** And the remaining at 0.5 h [10]?
**A.** 49%

**Q.** And the remaining at 0.75 h [10]?
**A.** 27%

**Q.** What about the remaining at 1 h [10] of the same compound?
**A.** 13%

**Q.** What about the half-life [11] of the same compound?
**A.** 1080 min

**Q.** And the remaining at 2 h [11]?
**A.** 89%

**Q.** What about the remaining at 4 h [11] of the same compound?
**A.** 77%

**Q.** What about the remaining at 8 h [11] of the same compound?
**A.** 68%

**Q.** And the remaining at 16 h [11]?
**A.** 56%

**Q.** And the remaining at 24 h [11]?
**A.** 30%

**Q.** What about the remaining at 48 h [11] of the same compound?
**A.** 13%

**Q.** What about the remaining at 72 h [11] of the same compound?
**A.** 3.27%

**Q.** Which results are given for `CC(C)C[C@@H]1NC(=O)[C@@H](CC(C)C)NC(=S)[C@H](CC(C)C)NC(=O)[C@H](Cc2ccc(O)cc2)NC(=O)[C@H]2CCCN2C(=O)[C@H](CC(C)C)NC1=O` [10f] (cyclo(LL[dP]Y[X3]))?
**A.** % solubility [12]: 23%; Pe Avg [1]: 7.3e-06 cm/s; Pe set1 [1]: 7.27e-06 cm/s; Pe set2 [1]: 9.86e-06 cm/s; Pe set3 [1]: 4.7e-06 cm/s; Papp [1]: 7.3 ×10⁻⁶ cm/s; logD heptane ethylene glycol [13]: 1.08; Papp A→B ([14]; Caco-2, Papp A-B + Elacridar avg): 6.8 ×10⁻⁶ cm/s; Papp A→B ([14]; Caco-2, Papp A-B avg): 3.01 ×10⁻⁶ cm/s; Papp B→A ([14]; Caco-2, Papp B-A + Elacridar avg): 8.9 ×10⁻⁶ cm/s; Papp B→A ([14]; Caco-2, Papp B-A avg): 41.8 ×10⁻⁶ cm/s; Papp A-B avg (second block) [15]: 3.01e-06 cm/s; Papp A-B set 1 (second block) [15]: 4.57e-06 cm/s; Papp A-B set 2 (second block) [15]: 1.45e-06 cm/s; Papp B-A avg (second block) [15]: 4.18e-05 cm/s; Papp B-A set 1 (second block) [15]: 3.97e-05 cm/s; Papp B-A set 2 (second block) [15]: 4.39e-05 cm/s; Protein binding set1 [16]: 100%; Protein binding set2 [16]: 100%; Protein binding set3 [16]: 95%; Half lives (SIF) Avg [17]: 128 min; Half lives (SIF) set1 [17]: 184 min; Half lives (SIF) set2 [17]: 94 min; Half lives (SIF) set3 [17]: 108 min; Half lives [3]: 42.3; AUClast p.o [4]: 120.8 ng·h/mL; time over which the peptide is detectable in plasma [4]: ≥ 8 h; AUC(0-t) ([5]; iv): 390 ng·h/mL; Cmax ([5]; iv): 580 ng/mL; MRT ([5]; iv): 1.1 h; Vd ([5]; iv): 3.2 L/kg; clearance ([5]; iv): 42.2 mL/min/kg; bioavailability ([5]; po): 3.1%; AUC(0-t) ([5]; po, 10 mg/kg): 121 ng·h/mL; Cmax ([5]; po, 10 mg/kg): 61.7 ng/mL; MRT ([5]; po, 10 mg/kg): 2.1 h; level at 3 h ([5]; po, 10 mg/kg): 13.1 ng/mL; logD [6]: 1.53; fraction unbound [7]: 0.02; half-life [8]: 78 min; remaining at 5 min [8]: 78%; remaining at 10 min [8]: 73%; remaining at 20 min [8]: 67%; remaining at 0.5 h [8]: 61%; remaining at 1 h [8]: 54%; remaining at 2 h [8]: 44%; remaining at 4 h [8]: 34%; remaining at 8 h [8]: 24%; remaining at 12 h [8]: 15%; remaining at 24 h [8]: 9%; half-life [9]: 126 min; remaining at 10 min [9]: 80.9%; remaining at 0.5 h [9]: 67.2%; remaining at 1 h [9]: 56.5%; remaining at 2 h [9]: 48.1%; remaining at 4 h [9]: 42.9%; remaining at 8 h [9]: 31.7%; remaining at 12 h [9]: 24.6%; remaining at 24 h [9]: 17.2%; microsomal CLint [10]: 33 µL/min/mg; remaining at 5 min [10]: 78%; remaining at 10 min [10]: 71%; remaining at 20 min [10]: 62%; remaining at 0.5 h [10]: 56%; remaining at 0.75 h [10]: 48%; remaining at 1 h [10]: 38%; half-life [11]: 1080 min; remaining at 1 h [11]: 92%; remaining at 3 h [11]: 87%; remaining at 5 h [11]: 84%; remaining at 7 h [11]: 79%; remaining at 9 h [11]: 63%; remaining at 12 h [11]: 54%; remaining at 24 h [11]: 38%; remaining at 36 h [11]: 22%; remaining at 48 h [11]: 25%; remaining at 60 h [11]: 26%; remaining at 72 h [11]: 21%; tR [18]: 14 min; Half-life of D-Leu1 amide proton (HDX) [19]: 1 min; Half-life of Leu2 amide proton (HDX) [19]: 700 min; Half-life of Leu3 amide proton (HDX) [19]: 790 min; Half-life of Leu6 amide proton (HDX) [19]: 720 min; Half-life of Tyr5 amide proton (HDX) [19]: 1080 min; Half-life of D-Leu1 amide proton (HDX) ([20]; 20% CD3OD in CDCl3): 10 min; Half-life of Leu2 amide proton (HDX) ([20]; 20% CD3OD in CDCl3): 500 min; Half-life of Leu3 amide proton (HDX) ([20]; 20% CD3OD in CDCl3): 196 min; Half-life of Leu6 amide proton (HDX) ([20]; 20% CD3OD in CDCl3): > 1440 min; Half-life of Tyr5 amide proton (HDX) ([20]; 20% CD3OD in CDCl3): > 1440 min; % intact NH, Leu6 [20, 21]: 52%; % intact NH, Tyr5 [20, 21]: 67%
